Key:
[1] = Binding to hydroxyapatite (effect of bisphosphonates and their derivatives on hydroxyapatite)
[2] = Inhibition of hydroxyapatite growth (calcium phosphate crystal formation and precipitation inhibiting activity); assay type: biochemical; parameters: key to the marks not given beside the values; conditions: at 100 μM
[3] = tested on: mouse calvaria; assay: Parathyroid hormone stimulated bone resorption inhibition activity in vitro in mouse calvaria; assay type: cell-based
Description: (§1) In addition, the parathyroid hormone stimulated bone resorption inhibition activity in vitro in mouse calvaria, as well as inhibition of retinoid induced bone resorption in thyroparathyroidectomised rats in vivo were determined (Reynolds & Dingle (Calc Tiss Res 1970; 4:339, and Trechsel et al. (J Clin Invest 1987; 80:1679)) (Table 2).

[4] = tested on: retinoid induced bone resorption; assay: Inhibition of retinoid induced bone resorption in thyroparathyroidectomised rats in vivo; conditions: 150 μmole/kg
Description: as §1

In the case of `CC(C)OP(=O)(O)C(C)(O)P(=O)(O)O` (stereo not shown) [(1-Hydroxyethylidene)bisphosphonic acid monoisopropyl ester], the Ki [1] is reported as 7.3 µM and the Inhibition of growth [2] is reported as “+++”.

With `CCCCC(O)(P(=O)(O)O)P(=O)(O)O` [(1-Hydroxypentylidene)bisphosphonate, (1-Hydroxypentylidene)-bisphosphonate, reference compound] the “Inhibition of resorption (%)” value ([3]; 100 μm) was 56%.

In the case of `CCCCC(O)(P(=O)(O)O)P(=O)(O)OC(C)C` (stereo not shown) [(1-hydroxypentylidene)bisphosphonic acid monoisopropyl ester], the Ki [1] is reported as 15.4 µM and the Inhibition of growth [2] is reported as “++”.

For `CCCCC(O)(P(=O)(O)O)P(=O)(O)OC` (stereo not shown) [(1-hydroxypentylidene)bisphosphonic acid monomethyl ester], the Ki [1] was 11.8 µM, the Inhibition of growth [2] was “+++” and the “Inhibition of resorption (%)” value ([3]; 100 μm) was 7%. The “Inhibition of resorption (%)” value ([3]; 1000 μm) was 47% and the “Inhibition of resorption (%)” value [4] was 52%.

In the case of `O=P(O)(O)C(Cl)(Cl)P(=O)(O)O` [Clodronate, reference compound], the Ki [1] is reported as 1.3 µM and the Inhibition of growth [2] is reported as “+++”.

Work on `CC(O)(P(=O)(O)O)P(=O)(O)O` [Etidronate, reference compound] yielded a Ki [1] of 0.9 µM.

Source: patent US5438048A, “Methylenebisphosphonic acid derivatives” (Leiras Oy, priority 1990, dated 1995)
